Assay results taken from patent US9328122B2, “7-substituted Hanfangichin B derivative, and preparation method and use thereof” (HANGZHOU BENSHENG PHARMACEUTICAL CO., LTD., priority 2012, dated 2016).
Values after ≈ are worked out from the molar mass of the structure shown.

Experiments:
[1] = test system: tumor; assay: Antitumor activity compared with fangchinoline, overall statement; assay type: cell-based; details: tumor type not specified
[2] = test system: Becap-37 (human breast cancer) cells; assay: MTT cell growth inhibition, solid tumor cells; assay type: cell-based; details: Homo sapiens, Becap-37, 72 h, MTT; for IC50: read-out: IC50; for IC90: read-out: IC90
Summary of the method: (§1)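 Exposure lasted 72 h, following 24 h growth of 6000 cells/well in DMEM high glucose containing 10% FBS at 37 °C in 5% CO2; endpoint was MTT-based viable cell concentration across tested compound concentrations.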

[3] = test system: MG-63 (osteosarcoma) cells; assay: MTT cell growth inhibition, solid tumor cells; assay type: cell-based; details: Homo sapiens, MG-63, 72 h, MTT; for IC50: read-out: IC50; for IC90: read-out: IC90
Summary of the method: as §1

[4] = test system: Hep-2 (laryngeal carcinoma) cells; assay: MTT cell growth inhibition, solid tumor cells; assay type: cell-based; details: Homo sapiens, Hep-2, 72 h, MTT; for IC50: read-out: IC50; for IC90: read-out: IC90
Summary of the method: as §1

[5] = test system: A549 (human lung cancer) cells; assay: MTT cell growth inhibition, solid tumor cells; assay type: cell-based; details: Homo sapiens, A549, 72 h, MTT; for IC50: read-out: IC50; for IC90: read-out: IC90
Summary of the method: as §1

[6] = test system: Hep G2 (human liver cancer) cells; assay: MTT cell growth inhibition, solid tumor cells; assay type: cell-based; details: Homo sapiens, HepG2, Hep G2, 72 h, MTT; for IC50: read-out: IC50; for IC90: read-out: IC90
Summary of the method: as §1

[7] = test system: MGC-803 (human gastric cancer) cells; assay: MTT cell growth inhibition, solid tumor cells; assay type: cell-based; details: MGC-803, 72 h, MTT; for IC50: read-out: IC50; for IC90: read-out: IC90
Summary of the method: as §1

[8] = test system: RKO (human colon adenocarcinoma) cells; assay: MTT cell growth inhibition, solid tumor cells; assay type: cell-based; details: Homo sapiens, RKO, 72 h, MTT; for IC50: read-out: IC50; for IC90: read-out: IC90
Summary of the method: as §1

[9] = test system: U87-MG (malignant glioma) cells; assay: MTT cell growth inhibition, solid tumor cells; assay type: cell-based; details: Homo sapiens, U-87 MG, U87-MG, 72 h, MTT; for IC50: read-out: IC50; for IC90: read-out: IC90
Summary of the method: as §1

[10] = test system: Hela (human cervical cancer) cells; assay: MTT cell growth inhibition, solid tumor cells; assay type: cell-based; details: Homo sapiens, Hela, 72 h, MTT; for IC50: read-out: IC50; for IC90: read-out: IC90
Summary of the method: as §1

[11] = test system: H9 (acute lymphoblastic leukemia) cells; assay: MTT cell growth inhibition, leukemia cells; assay type: cell-based, human; details: Homo sapiens, H9, 72 h, MTT; for IC50: read-out: IC50; for IC90: read-out: IC90
Summary of the method: (§2)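 Growth inhibition is assessed by MTT after leukemia cells, plated at 6000 per well in RPMI-1640 containing 10% fetal bovine serum, are exposed for 72 hours to graded compound concentrations added the day after plating.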

[12] = test system: Kasumi-1 (acute myeloid leukemia M2 type) cells; assay: MTT cell growth inhibition, leukemia cells; assay type: cell-based, human; details: Homo sapiens, Kasumi-1, 72 h, MTT; for IC50: read-out: IC50; for IC90: read-out: IC90
Summary of the method: as §2

[13] = test system: Jurkat (acute lymphoblastic leukemia) cells; assay: MTT cell growth inhibition, leukemia cells; assay type: cell-based, human; details: Homo sapiens, Jurkat, 72 h, MTT; for IC50: read-out: IC50; for IC90: read-out: IC90
Summary of the method: as §2

[14] = test system: K562/ADR (K562adr, drug-resistant chronic myeloid leukemia) cells; assay: MTT cell growth inhibition, leukemia cells; assay type: cell-based; details: Homo sapiens, K562/ADR, 72 h, MTT; for IC50: read-out: IC50; for IC90: read-out: IC90
Summary of the method: as §2

[15] = test system: NB4 (acute promyelocytic leukemia) cells; assay: MTT cell growth inhibition, leukemia cells; assay type: cell-based; details: Homo sapiens, NB4, 72 h, MTT; for IC50: read-out: IC50; for IC90: read-out: IC90
Summary of the method: as §2

[16] = test system: CNE (nasopharyngeal carcinoma) cells; assay: MTT cell growth inhibition, solid tumor cells; assay type: cell-based, human; details: for IC50 / IC90: Homo sapiens, CNE, 72 h, MTT; for IC50: read-out: IC50; for IC90: read-out: IC90
Summary of the method: as §1

[17] = test system: CaEs-17 (esophageal cancer) cells; assay: MTT cell growth inhibition, solid tumor cells; assay type: cell-based, human; details: Homo sapiens, CaEs17, CaEs-17, 72 h, MTT; for IC50: read-out: IC50; for IC90: read-out: IC90
Summary of the method: as §1

[18] = test system: PANC-1 (pancreatic cancer) cells; assay: MTT cell growth inhibition, solid tumor cells; assay type: cell-based, human; details: Homo sapiens, PANC-1, 72 h, MTT; for IC50: read-out: IC50; for IC90: read-out: IC90
Summary of the method: as §1

[19] = test system: SK-OV-3 (ovarian cancer) cells; assay: MTT cell growth inhibition, solid tumor cells; assay type: cell-based, human; details: Homo sapiens, SK-OV-3, 72 h, MTT; for IC50: read-out: IC50; for IC90: read-out: IC90
Summary of the method: as §1

[20] = test system: PC-3 (prostate cancer) cells; assay: MTT cell growth inhibition, solid tumor cells; assay type: cell-based, human; details: Homo sapiens, PC-3, 72 h, MTT; for IC50: read-out: IC50; for IC90: read-out: IC90
Summary of the method: as §1

Row | Structure (SMILES) | antitumor activity compared with that of fangchinoline [1] | IC50 [2] | IC90 [2] | IC50 [3] | IC90 [3] | IC50 [4] | IC90 [4] | IC50 [5] | IC90 [5] | IC50 [6] | IC90 [6] | IC50 [7] | IC90 [7] | IC50 [8] | IC90 [8] | IC50 [9] | IC90 [9] | IC50 [10] | IC90 [10] | IC50 [11] | other results
1 | COc1ccc2cc1Oc1ccc(cc1)C[C@H]1c3cc(c(OC)cc3CCN1C)Oc1c(OCC(O)CN3CCN(C#N)CC3)c(OC)cc3c1[C@H](C2)N(C)CC3 (stereo partly shown) [BS-FC-421] | significantly superior | 1.15 µg/mL (≈ 1.48 µM) | 3.96 µg/mL (≈ 5.1 µM) | 1.6 µg/mL (≈ 2.06 µM) | 2.4 µg/mL (≈ 3.09 µM) | 1.92 µg/mL (≈ 2.47 µM) | 8.95 µg/mL (≈ 11.5 µM) | 3.78 µg/mL (≈ 4.87 µM) | 10.2 µg/mL (≈ 13.1 µM) | 1.16 µg/mL (≈ 1.49 µM) | 3.25 µg/mL (≈ 4.19 µM) | 0.84 µg/mL (≈ 1.08 µM) | 4.44 µg/mL (≈ 5.72 µM) | 0.61 µg/mL (≈ 0.786 µM) | 2.33 µg/mL (≈ 3 µM) | 1.05 µg/mL (≈ 1.35 µM) | 2.75 µg/mL (≈ 3.54 µM) | 0.88 µg/mL (≈ 1.13 µM) | 2.78 µg/mL (≈ 3.58 µM) | 1 µg/mL (≈ 1.29 µM) | IC90 [11]: 2.8 µg/mL (≈ 3.61 µM); IC50 [12]: 0.95 µg/mL (≈ 1.22 µM); IC90 [12]: 2.55 µg/mL (≈ 3.29 µM); IC50 [13]: 0.97 µg/mL (≈ 1.25 µM); IC90 [13]: 3.79 µg/mL (≈ 4.88 µM); IC50 [14]: 0.21 µg/mL (≈ 0.271 µM); IC90 [14]: 1.43 µg/mL (≈ 1.84 µM); IC50 [15]: 0.61 µg/mL (≈ 0.786 µM); IC90 [15]: 1.61 µg/mL (≈ 2.07 µM); IC50 [16]: 0.87 µg/mL (≈ 1.12 µM); IC90 [16]: 3.87 µg/mL (≈ 4.99 µM); anti-CNE activity increase over fangchinoline ([16]; relative to fangchinoline, Table 2): ~3 fold; IC50 [17]: 0.88 µg/mL (≈ 1.13 µM); IC90 [17]: 9.43 µg/mL (≈ 12.2 µM); IC50 [18]: 2.96 µg/mL (≈ 3.81 µM); IC90 [18]: 7.01 µg/mL (≈ 9.03 µM); IC50 [19]: 2.36 µg/mL (≈ 3.04 µM); IC90 [19]: 11 µg/mL (≈ 14.2 µM); IC50 [20]: 2.72 µg/mL (≈ 3.51 µM); IC90 [20]: 6.07 µg/mL (≈ 7.82 µM)
2 | COc1ccc2cc1Oc1ccc(cc1)C[C@H]1c3cc(c(OC)cc3CCN1C)Oc1c(OC(=O)C3CC3)c(OC)cc3c1[C@H](C2)N(C)CC3 [BS-FC-304] | significantly superior | 3.15 µg/mL (≈ 4.65 µM) | 7.22 µg/mL (≈ 10.7 µM) | 2.32 µg/mL (≈ 3.43 µM) | 5.72 µg/mL (≈ 8.45 µM) | 4.95 µg/mL (≈ 7.31 µM) | 12.2 µg/mL (≈ 18.1 µM) | 2.24 µg/mL (≈ 3.31 µM) | 5.59 µg/mL (≈ 8.26 µM) | 2.49 µg/mL (≈ 3.68 µM) | 9.42 µg/mL (≈ 13.9 µM) | 1.87 µg/mL (≈ 2.76 µM) | 10.2 µg/mL (≈ 15.1 µM) | 1.79 µg/mL (≈ 2.64 µM) | 3.45 µg/mL (≈ 5.1 µM) | 1.68 µg/mL (≈ 2.48 µM) | 4.97 µg/mL (≈ 7.34 µM) | 1.87 µg/mL (≈ 2.76 µM) | 4.65 µg/mL (≈ 6.87 µM) | 3.6 µg/mL (≈ 5.32 µM) | IC90 [11]: 7.05 µg/mL (≈ 10.4 µM); IC50 [12]: 1.54 µg/mL (≈ 2.28 µM); IC90 [12]: 3.94 µg/mL (≈ 5.82 µM); IC50 [13]: 0.81 µg/mL (≈ 1.2 µM); IC90 [13]: 2.94 µg/mL (≈ 4.34 µM); IC50 [14]: 0.44 µg/mL (≈ 0.65 µM); IC90 [14]: 3 µg/mL (≈ 4.43 µM); IC50 [15]: 1.24 µg/mL (≈ 1.83 µM); IC90 [15]: 3.99 µg/mL (≈ 5.9 µM); IC50 [16]: 3.8 µg/mL (≈ 5.61 µM); IC90 [16]: 7.2 µg/mL (≈ 10.6 µM); IC50 [17]: 2.35 µg/mL (≈ 3.47 µM); IC90 [17]: 10.7 µg/mL (≈ 15.8 µM); IC50 [18]: 3.73 µg/mL (≈ 5.51 µM); IC90 [18]: 10.4 µg/mL (≈ 15.4 µM); IC50 [19]: 6.45 µg/mL (≈ 9.53 µM); IC90 [19]: 15.4 µg/mL (≈ 22.7 µM); IC50 [20]: 4.02 µg/mL (≈ 5.94 µM); IC90 [20]: 10.5 µg/mL (≈ 15.5 µM)
